From patent US10016430B2, “1-[2-(aminomethyl)benzyl]-2-thioxo-1,2,3,5-tetrahydro-4H-pyrrolo[3,2-d]pyrimidin-4-ones as inhibitors of myeloperoxidase” (AstraZeneca AB, priority 2014, dated 2018)

Target: activated MPO (Homo sapiens (Human), UniProt P05164)
Assay: Urate production by activated MPO incubated with xanthine, LC-MS
Assay type: biochemical
Details: activated MPO incubated with xanthine and titrated compound for 80 min, FIG. 3
Description: The dotted line represents the urate formed in the presence of unactivated MPO.
We postulate that tissue hypoxia, the degree of which will be determined by the degree of inflammation and vascular function, has impact on plasma urate concentration. Myocardial ischemia results in accelerated loss of ATP and a corresponding buildup of urate levels in rat hearts (Am. J. Physiol. Heart Circ. Physiol., 2004, 286, H677-H684; J. Biol. Chem., 1995, 270, 18797-18803). Furthermore, increased myocardial production of urate contributes to systemic urate levels and correlates to NYHA class in heart failure patients (Circ. J., 2006, 70, 1006-1011).

Sequence of activated MPO (P05164 49-745): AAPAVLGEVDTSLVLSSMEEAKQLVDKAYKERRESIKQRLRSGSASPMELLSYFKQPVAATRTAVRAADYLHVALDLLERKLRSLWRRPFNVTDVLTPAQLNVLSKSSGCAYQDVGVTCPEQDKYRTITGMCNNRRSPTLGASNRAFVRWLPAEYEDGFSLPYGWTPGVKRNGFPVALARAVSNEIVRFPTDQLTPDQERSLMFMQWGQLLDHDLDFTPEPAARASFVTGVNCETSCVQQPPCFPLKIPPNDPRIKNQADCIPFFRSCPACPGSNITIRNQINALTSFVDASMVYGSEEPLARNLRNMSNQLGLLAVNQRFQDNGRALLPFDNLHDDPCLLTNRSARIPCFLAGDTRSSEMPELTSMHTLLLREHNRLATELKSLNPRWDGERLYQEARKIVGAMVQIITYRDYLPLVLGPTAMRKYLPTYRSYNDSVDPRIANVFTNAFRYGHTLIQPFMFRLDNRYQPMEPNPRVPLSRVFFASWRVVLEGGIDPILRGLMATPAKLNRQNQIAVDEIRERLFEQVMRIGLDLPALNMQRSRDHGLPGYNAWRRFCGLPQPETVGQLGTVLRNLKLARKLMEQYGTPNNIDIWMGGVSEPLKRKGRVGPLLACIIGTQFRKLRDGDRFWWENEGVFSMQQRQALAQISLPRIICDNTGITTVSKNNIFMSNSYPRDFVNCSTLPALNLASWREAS

Inhibition of urate production by activated MPO: concentration-dependently inhibited
Compound: C[C@@H](N)c1cc(Cl)ccc1Cn1c(=S)[nH]c(=O)c2[nH]ccc21 [Example 3, 1-{2-[(1R)-1-Aminoethyl]-4-chlorobenzyl}-2-thioxo-1,2,3,5-tetrahydro-4H-pyrrolo[3,2-d]pyrimidin-4-one]
